Results taken from patent US6586442B2, “Benzofurane derivatives, their preparation process, their use as medicaments and the pharmaceutical compositions containing them” (priority 1999, dated 2003).

These molecules were tested against human αvβ3 receptor (Homo sapiens, UniProt P05106+P06756) (assay: Kistrin/Vitronectin Receptor (αvβ3) ELISA test). Conditions: not given.
Type: binding
Procedure: Kistrin/Vitronectin Receptor (αvβ3) ELISA Test Protocol:
96-well MaxiSorp plates are coated overnight at […] with 100 μl of Kistrin at 1 μg/ml (dilution in coating buffer: 0.05M (carbonate)/NaOH pH 9.6. The next day, the wells are emptied and the ligands (kistrin) are then fixed (fixation buffers: PBS containing 0.5% BSA (pH=7.4)) for 1 hour at ambient temperature under gentle agitation of 125 rpm. The wells are washed six times (washing buffer: PBS containing 0.05% Tween 20 (pH 7.7) then the following is added per well and in this order:
40 μl of incubation buffer
10 μl of the dilution of the product to be tested (the products are diluted in a 50:50 DMSO/water mixture)
50 μl of human αvβ3 receptor (cf Pytel et al. Methods Enzymol. (1987) 144 (Dilution in incubation buffer, adapted according to the batch of receptor and according to the ligand). The ligand, the αvβ3 receptor and the products to be studied are incubated for 3 hours at ambient temperature with gentle agitation of 125 rpm.
The wells are again washed six times, then incubated for 2 hours at ambient temperature with gentle agitation of 125 rpm, in the presence of 100 μl of anti-receptor antibody coupled to a peroxidase (The 4B12-HRP antibody is diluted in incubation buffer (50 mM TRIS pH 7.4; 0.5% BSA; 0.05% Tween 20; 1 mM MnCl2; 50 μM CaCl2; 50 μM MgCl2; 100 mM NaCl). The dilution is to be adapted according to the batch of receptor.
The wells are then washed six times before measurement of the ligand-receptor bond is carried out using a peroxidase developer kit (TBM Microwell Peroxidase Substrate System Kirkegaard; Ref cat 50-76-00).
This kit contains a flask A of substrate (3,3′,5,5′-tetramethylebenzidine at 0.4 g/l) and a flask B (H2O2 to 0.02% in Citrate/Citric acid). Extemporaneously, one volume of A is mixed with one volume of B, then the reaction mixture is distributed at a rate of 100 μl/wells.
The enzymatic reaction develops between 6 to 10 minutes for Kistrin/αvβ3 then its development is stopped by the addition of 100 μl of 1M phosphoric acid. The optical density is determined at 450 nm.
Expression of the results
The following curve is plotted: the bond percentage as a function of the logarithm of each concentration of the tested product.
For each product IC50 is determined according to the following formula: IC50=(B0+Bmin)/2
B0=Maximum bond in the absence of any product
Bmin=Minimum bond in the presence of the highest concentration of the product.

Chain of human αvβ3 receptor (P06756 31-889 limits assumed): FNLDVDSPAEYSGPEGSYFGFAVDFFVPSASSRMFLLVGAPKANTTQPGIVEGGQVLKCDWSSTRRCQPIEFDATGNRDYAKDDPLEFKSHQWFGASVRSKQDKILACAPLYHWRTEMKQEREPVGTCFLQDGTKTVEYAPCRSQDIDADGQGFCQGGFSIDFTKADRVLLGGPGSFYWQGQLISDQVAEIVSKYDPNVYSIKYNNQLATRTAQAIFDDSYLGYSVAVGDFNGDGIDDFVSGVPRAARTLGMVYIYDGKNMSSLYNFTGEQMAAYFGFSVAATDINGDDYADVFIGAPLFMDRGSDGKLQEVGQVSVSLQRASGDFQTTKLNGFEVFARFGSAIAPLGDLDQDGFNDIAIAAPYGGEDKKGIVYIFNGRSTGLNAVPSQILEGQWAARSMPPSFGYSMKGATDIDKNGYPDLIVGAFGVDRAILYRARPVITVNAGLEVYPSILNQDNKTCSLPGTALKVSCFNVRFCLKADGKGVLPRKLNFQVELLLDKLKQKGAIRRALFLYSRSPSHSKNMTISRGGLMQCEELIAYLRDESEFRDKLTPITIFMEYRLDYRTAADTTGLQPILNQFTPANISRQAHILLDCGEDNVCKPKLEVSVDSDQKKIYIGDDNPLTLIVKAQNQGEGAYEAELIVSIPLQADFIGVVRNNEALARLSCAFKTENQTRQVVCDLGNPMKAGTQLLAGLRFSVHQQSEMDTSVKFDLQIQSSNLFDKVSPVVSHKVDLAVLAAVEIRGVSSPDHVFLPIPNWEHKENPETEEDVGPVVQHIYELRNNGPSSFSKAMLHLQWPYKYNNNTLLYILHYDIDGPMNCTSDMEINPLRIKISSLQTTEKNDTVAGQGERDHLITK
Chain of human αvβ3 receptor (P06756 891-1048 limits assumed): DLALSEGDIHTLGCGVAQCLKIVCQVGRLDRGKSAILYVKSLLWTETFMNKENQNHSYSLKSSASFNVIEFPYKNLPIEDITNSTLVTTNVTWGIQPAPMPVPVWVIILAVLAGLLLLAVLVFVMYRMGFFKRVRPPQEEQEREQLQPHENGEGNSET
Chain of human αvβ3 receptor (P05106 27-788): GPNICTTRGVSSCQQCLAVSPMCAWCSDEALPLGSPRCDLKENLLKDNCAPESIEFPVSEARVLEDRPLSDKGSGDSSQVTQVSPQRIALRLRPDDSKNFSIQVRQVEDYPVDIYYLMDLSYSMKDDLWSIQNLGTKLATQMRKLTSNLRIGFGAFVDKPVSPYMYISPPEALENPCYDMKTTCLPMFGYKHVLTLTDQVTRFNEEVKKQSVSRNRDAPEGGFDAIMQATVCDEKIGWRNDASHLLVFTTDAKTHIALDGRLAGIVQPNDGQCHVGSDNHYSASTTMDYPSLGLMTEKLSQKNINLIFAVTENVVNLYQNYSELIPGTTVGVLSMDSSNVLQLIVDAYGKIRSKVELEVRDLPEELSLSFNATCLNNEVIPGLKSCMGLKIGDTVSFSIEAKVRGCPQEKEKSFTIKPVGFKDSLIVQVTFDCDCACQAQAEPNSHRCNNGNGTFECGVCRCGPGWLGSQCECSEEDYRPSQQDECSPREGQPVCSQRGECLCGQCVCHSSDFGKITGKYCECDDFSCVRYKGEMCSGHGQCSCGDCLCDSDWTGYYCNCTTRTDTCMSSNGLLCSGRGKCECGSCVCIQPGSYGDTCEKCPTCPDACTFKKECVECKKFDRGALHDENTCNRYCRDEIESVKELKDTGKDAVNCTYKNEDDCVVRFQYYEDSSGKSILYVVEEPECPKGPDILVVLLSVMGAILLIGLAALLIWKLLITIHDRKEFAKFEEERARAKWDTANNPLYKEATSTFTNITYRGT

Row | SMILES | IC50 [nM]
1 | CC(C)OC(=O)C(Cc1cc2cc(CCC(=O)NC3=NCCCN3)ccc2o1)NS(=O)(=O)c1cccc2ccccc12 (centres unmarked) [Example 14] | 3700

Same assay, conditions: Kistrin-coated plates, human αvβ3 receptor, 3 hours at ambient temperature, OD 450 nm; read-out: K/VnR IC50

Row | SMILES | IC50 [nM]
2 | O=C(CCc1ccc2oc(CC(NC(=O)OCC34CC5CC(CC(C5)C3)C4)C(=O)O)cc2c1)NC1=NCCCN1 (stereo not drawn) [Example 5, Mono(trifluoroacetate) of 5-[3-oxo-3-[(1,4,5,6-tetrahydro-2-pyrimidinyl)amino]propyl]-α-[[[(tricyclo[3.3.1.1^3,7]dec-1-yl)methoxy]carbonyl]amino]-2-benzofuranpropanoic acid] | 45
3 | O=C(CCc1ccc2oc(CC(NS(=O)(=O)NC(=O)OCc3ccccc3)C(=O)O)cc2c1)NC1=NCCCN1 (centres unmarked) [Example 7] | 10
4 | O=C(CCc1ccc2oc(CC(NS(=O)(=O)NCc3ccccc3)C(=O)O)cc2c1)NC1=NCCCN1 (centres unmarked) [Example 8, Mono(trifluoroacetate) ofα-[[[(phenylmethyl)-amino]sulphonyl]amino]-5-[3-oxo-3-[(1,4,5,6-tetrahydro-2-pyrimidinyl)amino]propyl]-2-benzofuranpropanoic acid] | 8.7
5 | CC(C)c1ccc(S(=O)(=O)NC(Cc2cc3cc(CCC(=O)NC4=NCCCN4)ccc3o2)C(=O)O)cc1 (stereo not drawn) [Example 10, α-[[[4-(1-methylethyl)phenyl]sulphonyl]amino]-5-(3-oxo-3-[(1,4,5,6-tetrahydro-2-pyrimidinyl)amino]propyl]-2-benzofuranpropanoic acid] | 9.1
6 | CCCS(=O)(=O)NC(Cc1cc2cc(CCC(=O)NC3=NCCCN3)ccc2o1)C(=O)O (centres unmarked) [Example 11] | 5.7
7 | O=C(CCc1ccc2oc(CC(NS(=O)(=O)c3cccc4ccccc34)C(=O)O)cc2c1)NC1=NCCCN1 (stereo not drawn) [Example 13, α-[(1-naphthalenylsulphonyl)amino]-5-[3-oxo-3-[(1,4,5,6-tetrahydro-2-pyrimidinyl)amino]propyl]—2-benzofuranpropanoic acid] | 5.5

The next lines start with the values.

Row | IC50 [nM] | SMILES
8 | 65 | O=C(CCc1ccc2oc(CC(NS(=O)(=O)NC(=O)OCC34CC5CC(CC(C5)C3)C4)C(=O)O)cc2c1)NC1=NCCCN1 (stereo not drawn) [Example 6, 5-[3-oxo-3-[(1,4,5,6-tetrahydro-2-pyrimidinyl)amino]-propyl]-α-[[[[[(tricyclo [2.3.1.1^3,7]dec-1-yl)methoxy]-carbonyl]amino]sulphonyl]amino]-2-benzofuranpropanoic acid]
9 | 15 | CC(C)(C)c1ccc(S(=O)(=O)NC(Cc2cc3cc(CCC(=O)NC4=NCCCN4)ccc3o2)C(=O)O)cc1 (stereo not drawn) [Example 9, α-[[[4-(1,1-dimethylethyl)phenyl]sulphonyl]amino]-5-(3-oxo-3-[(1,4,5,6-tetrahydro-2-pyrimidinyl)amino]propyl]-2-benzofuranpropanoic acid]
10 | 9 | O=C(CCc1ccc2oc(CC(NC(=O)OCc3ccccc3)C(=O)O)cc2c1)NC1=NCCCN1 (stereo not drawn) [Example 1, 5-[3-oxo-3-[(1,4,5,6-tetrahydro-2-pyrimidinyl)amino)propyl]-α-[[(phenylmethoxy)carbonyl]-amino]-2-benzofuranepropanoic acid]
11 | 6.7 | CS(=O)(=O)NC(Cc1cc2cc(CCC(=O)NC3=NCCCN3)ccc2o1)C(=O)O (centres unmarked) [Example 12]
